In PMC5772982 (Molecular cell, 2017) one finds Kd data, which are given here for one compound.

pKd: −log10 of the molar value.

A word on the pKd: it is the Kd on a negative log10 scale, so that one unit is a factor of ten. The low end stands for a large Kd, the high end for a small Kd.

The target of this assay is T1, PYL1 (Arabidopsis thaliana, UniProt Q8VZS8, S119A).
T1 sequence (Q8VZS8 2-221 S119A): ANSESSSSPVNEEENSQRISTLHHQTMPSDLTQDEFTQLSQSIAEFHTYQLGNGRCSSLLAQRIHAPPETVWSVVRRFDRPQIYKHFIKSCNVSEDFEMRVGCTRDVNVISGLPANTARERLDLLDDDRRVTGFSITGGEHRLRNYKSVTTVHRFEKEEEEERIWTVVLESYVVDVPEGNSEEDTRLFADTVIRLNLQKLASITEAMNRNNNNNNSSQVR
In words: microscale thermophoresis. The class given is binding. Background: In MST a laser heats a spot of the sample, and binding alters the fluorescence response.

In turn, `CC1=CC(=O)CC(C)(C)[C@@]1(O)/C=C/C(C)=C\C(=O)O` [Abscisic Acid] showed a pKd of 3.66.
